Read-outs that look alike come from different tables or passages of the source.
Test system: colorectal cancer cell lines (e.g. DLD-1, HCT 116, SW620, HCT-15, HCT-8, RKO)
Assay: Cell based assay, cell viability (CellTiter-Glo), colorectal cancer cell lines
Method in brief: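 Commercial tumour lines, detached with trypsin-EDTA, were seeded and incubated 24 h. They were then dosed to 0–2 μM final, grown 72 h, and assessed for viability using CellTiter-Glo.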

[1] = Homo sapiens, DLD-1, 72 hours treatment, read-out: IC50, colorectal cancer cell line DLD-1
[2] = Homo sapiens, HCT 116, 72 hours treatment, read-out: IC50, colorectal cancer cell line HCT 116
[3] = Homo sapiens, HCT-8, 72 hours treatment, read-out: IC50, colorectal cancer cell line HCT-8
[4] = Homo sapiens, HCT-15, 72 hours treatment, read-out: IC50, colorectal cancer cell line HCT-15
[5] = Homo sapiens, HT-29, 72 hours treatment, read-out: IC50, colorectal cancer cell line HT-29
[6] = Homo sapiens, LoVo, 72 hours treatment, read-out: IC50, colorectal cancer cell line LoVo
[7] = Homo sapiens, SW480, 72 hours treatment, read-out: IC50, colorectal cancer cell line SW480
[8] = Homo sapiens, SW-620, SW620, 72 hours treatment, read-out: IC50, colorectal cancer cell line SW620
[9] = RKO, 72 hours treatment, read-out: IC50, colorectal cancer cell line RKO

Compound	IC50 [1]	IC50 [2]	IC50 [3]	IC50 [4]	IC50 [5]	IC50 [6]	IC50 [7]	IC50 [8]	IC50 [9]
CC(=O)c1c([S+]([O-])Cc2ccc(F)cc2F)[nH]c2c(Br)ccc(Cl)c2c1=O (centres unmarked) [Compound 29, 3-acetyl-8-bromo-5-chloro-2-((2,4-difluorobenzyl)sulfinyl)quinolin-4(1H)-one]	870 nM	1210 nM	1710 nM	1400 nM	> 10000 nM	> 2000 nM	> 2000 nM	1380 nM	1570 nM
CC(=O)c1c([S+]([O-])Cc2ccc(F)c(Cl)c2)[nH]c2c(Br)ccc(Cl)c2c1=O (centres unmarked) [Compound 31, 3-acetyl-8-bromo-5-chloro-2-((3-chloro-4-fluorobenzyl)sulfinyl)quinolin-4(1H)-one]	820 nM	1180 nM	1420 nM	1250 nM	> 10000 nM	> 2000 nM	1660 nM	1350 nM	1420 nM
CC(=O)c1c([S+]([O-])Cc2ccc([N+](=O)[O-])cc2)[nH]c2c(Br)ccc(Cl)c2c1=O (centres unmarked) [Compound 33, 3-acetyl-8-bromo-5-chloro-2-((4-nitrobenzyl)sulfinyl)quinolin-4(1H)-one]	940 nM	1330 nM	1650 nM	1530 nM	> 10000 nM	> 2000 nM	> 2000 nM	1510 nM	1500 nM
CC(=O)c1c(S(=O)(=O)Cc2ccccc2)[nH]c2c(Br)ccc(Cl)c2c1=O [Compound 34, 3-acetyl-2-(benzylsulfonyl)-8-bromo-5-chloroquinolin-4(1H)-one]	1320 nM	1840 nM	> 2000 nM	1950 nM	> 10000 nM	> 2000 nM	> 2000 nM	1870 nM	> 2000 nM
CC(=O)c1c([S+]([O-])Cc2cc(Cl)ccc2Cl)[nH]c2c(Br)ccc(Cl)c2c1=O (centres unmarked) [Compound 44, 3-acetyl-8-bromo-5-chloro-2-((2,5-dichlorobenzyl)sulfinyl)quinolin-4(1H)-one]	890 nM	1200 nM	1660 nM	1480 nM	> 10000 nM	> 2000 nM	1340 nM	1450 nM	1150 nM
CC(=O)c1c([S+]([O-])Cc2cc(F)cc(F)c2)[nH]c2c(Br)ccc(Cl)c2c1=O (centres unmarked) [Compound 46, 3-acetyl-8-bromo-5-chloro-2-((3,5-difluorobenzyl)sulfinyl)quinolin-4(1H)-one]	1260 nM	1820 nM	> 2000 nM	1940 nM	> 10000 nM	> 2000 nM	> 2000 nM	1750 nM	1830 nM
CC(=O)c1c([S+]([O-])Cc2cccc(F)c2)[nH]c2c(Br)ccc(Cl)c2c1=O (centres unmarked) [Compound 50, 3-acetyl-8-bromo-5-chloro-2-((3-fluorobenzyl)sulfinyl)quinolin-4(1H)-one]	990 nM	1390 nM	1990 nM	1590 nM	> 10000 nM	> 2000 nM	> 2000 nM	1580 nM	1770 nM
CC(=O)c1c([S+]([O-])Cc2cc(C)on2)[nH]c2c(Br)ccc(Cl)c2c1=O (centres unmarked) [Compound 51, 3-acetyl-8-bromo-5-chloro-2-(((5-methylisoxazol-3-yl)methyl)sulfinyl)quinolin-4(1H)-one]	660 nM	840 nM	1210 nM	1010 nM	> 10000 nM	1640 nM	950 nM	1000 nM	1100 nM
COc1cccc(C[S+]([O-])c2[nH]c3c(Br)ccc(Cl)c3c(=O)c2C(C)=O)c1 (centres unmarked) [Compound 55, 3-acetyl-8-bromo-5-chloro-2-((3-methoxybenzyl)sulfinyl)quinolin-4(1H)-one]	1150 nM	1810 nM	> 2000 nM	1810 nM	> 10000 nM	> 2000 nM	> 2000 nM	1910 nM	> 2000 nM
CC(=O)c1c([S+]([O-])Cc2ccc(SC(F)(F)F)cc2)[nH]c2c(Br)ccc(Cl)c2c1=O (centres unmarked) [Compound 56, 3-acetyl-8-bromo-5-chloro-2-((4-((trifluoromethyl)thio)benzyl)sulfinyl)quinolin-4(1H)-one]	800 nM	1190 nM	1690 nM	1320 nM	> 10000 nM	> 2000 nM	> 2000 nM	1910 nM	1530 nM
CC(=O)c1c([S+]([O-])Cc2ccc([N+](=O)[O-])cc2)[nH]c2c(Cl)ccc(Cl)c2c1=O (centres unmarked) [Compound 57, 3-acetyl-5,8-dichloro-2-((4-nitrobenzyl)sulfinyl)quinolin-4(1H)-one]	> 2000 nM	> 2000 nM	> 2000 nM	> 2000 nM	> 10000 nM	> 2000 nM	> 2000 nM	> 2000 nM	> 2000 nM
COc1cc(C[S+]([O-])c2[nH]c3c(Br)ccc(Cl)c3c(=O)c2C(C)=O)cc(OC)c1 (centres unmarked) [Compound 59, 3-acetyl-8-bromo-5-chloro-2-((3,5-dimethoxybenzyl)sulfinyl)quinolin-4(1H)-one]	890 nM	1110 nM	1500 nM	1270 nM	> 10000 nM	> 2000 nM	> 2000 nM	1350 nM	1560 nM
CC(=O)c1c([S+]([O-])Cc2ccc(C(C)(C)C)cc2)[nH]c2c(Br)ccc(Cl)c2c1=O (centres unmarked) [Compound 60, 3-acetyl-8-bromo-2-((4-(tert-butyl)benzyl)sulfinyl)-5-chloroquinolin-4(1H)-one]	1480 nM	1940 nM	> 2000 nM	1800 nM	> 10000 nM	> 2000 nM	> 2000 nM	> 2000 nM	> 2000 nM
CC(=O)c1c([S+]([O-])Cc2ccc([S+]([O-])C(F)(F)F)cc2)[nH]c2c(Br)ccc(Cl)c2c1=O (centres unmarked) [Compound 64, 3-acetyl-8-bromo-5-chloro-2-((4-((trifluoromethyl)sulfinyl)benzyl)sulfinyl)quinolin-4(1H)-one]	–	1370 nM	1630 nM	1360 nM	> 10000 nM	> 2000 nM	> 2000 nM	1650 nM	1690 nM
CC(=O)c1c([S+]([O-])Cc2ccc(C(F)(F)F)cc2)[nH]c2c(Br)ccc(Cl)c2c1=O (centres unmarked) [Compound 70, 3-acetyl-8-bromo-5-chloro-2-((4-(trifluoromethyl)benzyl)sulfinyl)quinolin-4(1H)-one]	920 nM	1320 nM	1540 nM	1190 nM	> 10000 nM	> 2000 nM	> 2000 nM	1710 nM	1630 nM
CC(=O)c1c([S+]([O-])Cc2ccc(OC(F)(F)F)cc2)[nH]c2c(Br)ccc(Cl)c2c1=O (centres unmarked) [Compound 71, 3-acetyl-8-bromo-5-chloro-2-((4-(trifluoromethoxy)benzyl)sulfinyl)quinolin-4(1H)-one]	1150 nM	1730 nM	> 2000 nM	1620 nM	> 10000 nM	> 2000 nM	> 2000 nM	> 2000 nM	> 2000 nM
CC(=O)c1c([S+]([O-])Cc2ccc(C(F)(F)F)o2)[nH]c2c(Br)ccc(Cl)c2c1=O (centres unmarked) [Compound 72, 3-acetyl-8-bromo-5-chloro-2-(((5-(trifluoromethyl)furan-2-yl)methyl)sulfinyl)quinolin-4(1H)-one]	740 nM	940 nM	1240 nM	990 nM	> 2000 nM	1920 nM	1410 nM	1240 nM	1350 nM
CC(=O)c1c([S+]([O-])Cc2ccc(C#N)cc2)[nH]c2c(Br)ccc(Cl)c2c1=O (centres unmarked) [Compound 73, 4-(((3-acetyl-8-bromo-5-chloro-4-oxo-1,4-dihydroquinolin-2-yl)sulfinyl)methyl)benzonitrile]	1330 nM	1860 nM	> 2000 nM	> 2000 nM	> 10000 nM	> 2000 nM	> 2000 nM	> 2000 nM	> 2000 nM
CC(=O)c1c([S+]([O-])Cc2c(F)cccc2Cl)[nH]c2c(Br)ccc(Cl)c2c1=O (centres unmarked) [Compound 74, 3-acetyl-8-bromo-5-chloro-2-((2-chloro-6-fluorobenzyl)sulfinyl)quinolin-4(1H)-one]	1020 nM	1610 nM	2010 nM	1530 nM	> 10000 nM	> 2000 nM	> 2000 nM	1770 nM	> 2000 nM

— patent publication US11464770B2, “Anticancer pharmaceutical composition” (NATIONAL CANCER CENTER, priority 2016, dated 2022)
